According to patent US20060093553A1, “Cd26-based therapies for cancers and immune disease” (priority 2002, published 2006):

Assays:
[1] = test system: wtCD26 Jurkat transfectants; experiment: MTT uptake (cell growth) assay; type: cell-based, Human
Method: (§1) Cell growth assay was performed as described previously (Hansen et al., 1989). Cells were incubated in microplates in the presence of culture media alone, culture media and […] (50 μg/ml), culture media and doxorubicin at the indicated concentrations, or culture media, […]), and doxorubicin at the indicated concentrations, for a total volume of 100 μl (50,000 cells/well). After 48 h of incubation at 37° C., 25 μl of MTT was added to the wells at a final concentration of 1 mg/ml. The microplates were then incubated for 2 h at 37° C., followed by the addition of 100 μl of extraction buffer. After overnight incubation at 37° C., A570/nm measurements at 570 nm were performed, with the SE of the triplicate wells being less than 15%. MTT Assay. Cell growth assay was performed as described previously (Aytac et al., 2001). […] Following 36-48 h of incubation at 37° C., 25 ul of MET was added to the wells at a final concentration of 1 mg/ml. The microplates were then incubated for 2 h at 37° C., followed by the addition of 100 ul of extraction buffer. Following overnight incubation at 37° C., OD measurements at 570 nm were performed, with the standard errors of the mean of the triplicate wells being less than 15%. Cytotoxicity index was calculated as follows: [formula]

[2] = test system: S630A Jurkat transfectants; experiment: MTT uptake (cell growth) assay; type: cell-based, Human
Method: as §1

[3] = test system: S630A mutant CD26-positive/DPPIV-negative Jurkat transfectant; experiment: Cell cycle analysis (propidium iodide staining); details: 24 h
[4] = test system: 340-4 Jurkat transfectants; experiment: MTT uptake (cell growth) assay; type: cell-based, Human; details: 340-4 transfectants, similar to wtCD26; 48 h; FIG. 1
[5] = test system: nontransfected control (parental) Jurkat cells; experiment: Cell cycle analysis (propidium iodide staining); details: 24 h; for % G0/G1 / % G2/M / % S: Parental Jurkat; for Percentage G0G1 / Percentage G2/M / Percentage S: Control Jurkat
[6] = test system: 340-4 mutant CD26-positive/DPPIV-positive Jurkat transfectant; experiment: Cell cycle analysis (propidium iodide staining); type: cell-based, Human; details: 24 h, 340-4 transfectant
[7] = test system: wtCD26 Jurkat transfectants; experiment: Annexin V/PI apoptosis assay; type: cell-based, Human
Method: (§2) Annexin/PI Assays. Exposure of phosphatidylserine residues was quantified by surface annexin V staining as previously described (Vermes et al., 1995; […] and Pollard, 1994; Martin et al., 1995)). Briefly, cells were washed in binding buffer (10 mM HEPES, pH 7.4, 2.5 mM CaCl2, 140 mM NaCl), resuspended in 100 μl and incubated with 0.5 μl/ml annexin V-fluoresencein isothiocyanate (FITC) and 2.5 μg/ml propiodium iodide (PI) for 15 minutes in the dark. Cells were then washed again and resuspended in 400 μl of binding buffer, then flow cytometric analysis (FACScan; Becton Dickinson) was performed. Ten thousand cells were acquired per sample using Cellquest software and data were analyzed with the Paint-a-gate software (Becton Dickinson).

[8] = test system: 340-4 Jurkat transfectants; experiment: Annexin V/PI apoptosis assay; type: cell-based, Human
Method: as §2

[9] = test system: wild-type CD26-transfected Jurkat cell lines (wtCD26); experiment: Cell cycle analysis (propidium iodide staining); details: 24 h; for % G0/G1 / % G2/M / % S: wtCD26 transfectant; for Percentage G0G1 / Percentage G2/M / Percentage S: WtCD26 transfectant
M6P/IGF-IIR on monocytes = target: T1, M6P/IGF-IIR on monocytes (Homo sapiens, UniProt P11717); experiment: Inhibition of sCD26 uptake into monocytes by M6P (FACS); type: cell-based; details: M6P 0, 0.1, 1.0, and 10 μM; concentration dependent; with or without TT; FIGS. 11A, 11B
T1 construct: endogenous in cells; host or cells: purified peripheral blood monocytes
Method: (§3) In studies assessing the expression of CD80, CD86, and HLA-DR on purified monocytes (0.5×10^6 monocytes/well), monocytes were preincubated with or without TT (0.5 μg/ml) for 16 h. Following incubation with sCD26 (0.5 μg/ml) for 24 h, FITC-conjugated CD80, CD86, and HLA-DR mAbs (10 μg/ml) were used with PE-conjugated anti-CD14 (10 μg/ml) to gate exclusively on the monocyte population. In experiments assessing the effect of M6P on cellular uptake of sCD26, purified monocytes (0.5×10^6 monocytes/well) were incubated with the appropriate concentration of M6P in the presence or absence of sCD26-OG for 24 h in standard medium. Cells were then washed twice in ice-cold PBS, followed by incubation for 2 min in acidic PBS (pH 3.0) to strip any sCD26-OG attached to the cell surface. Cells were washed in ice-cold PBS and were incubated with mouse Ig isotypes (1 μg/ml) to block nonspecific binding; this was followed by reaction with PE-conjugated anti-CD14 (10 μg/ml) to gate exclusively on monocyte population.

[10] = test system: CD86 expression on monocytes; experiment: Surface expression on monocytes (flow cytometry); type: cell-based, Human
Method: as §3
(§4) Flow cytometric analysis of 10,000 viable cells was conducted on FACSCalibur (BD Biosciences, Mountain View, Calif.). Each experiment was repeated at least three times, and the results were provided in the form of a histogram of a representative experiment, or increased mean percent±SE fluorescent intensity compared with control or untreated cells.

[11] = test system: HLA-DR expression on monocytes; experiment: Surface expression on monocytes (flow cytometry); type: cell-based, Human
Method: as §3, §4

[12] = test system: CD80 expression on monocytes; experiment: Surface expression on monocytes (flow cytometry); type: cell-based, Human
Method: as §3, §4

[13] = test system: wtCD26 Jurkat transfectant; experiment: Immunoblotting of etoposide-induced apoptosis markers after z-LEHD-fmk preincubation; type: cell-based, Human
Method: SDS-PAGE and Immunoblotting. After incubation at 37° C. in culture media and etoposide or doxorubicin at the concentrations and duration indicated, cells were harvested from wells, washed with PBS, and lysed in lysis buffer consisting of 1% NP-40, 0.5% deotxycolate, 0.1% SDS, 1 mM phenyhmethylsulfonyl fluoride, 1 mM benzamidine, 10 μg/ml aprotinin, 50 μg/ml leupeptin, 10 μg/ml soybean trypsin inhibitor and 1 μg/ml pepstatin. After incubating on ice for 5 min, nuclei were removed by centrifugation and supernatants were collected as whole cell lysates. Sample buffer (4×) consisting of 20% glycerol, 4.6% SDS, 0.5 M Tris (pH 6.8), 4% β-mercaptoethanol, and 0.2% bromophenol blue was added to the appropriate aliquots of supernatants. After boiling, protein samples were submitted to SDS-PAGE analysis on an 8% gel under standard conditions using a mini-Protean II system (Bio-Rad). For immunoblotting, the proteins were transferred onto nitrocellulobse (Immobilon-P; Millipore). After overnight. blocking at 4° C. in blocking solution consisting of 0.1% Tween 20 and 5% BSA in Tris-buffered saline, membranes were blotted with the appropriate primary antibodies diluted in blocking solution for 1 hour at room temperature. Membranes were then washed with blocking solution, and appropriate secondary antibodies diluted in blocking solution were then applied for 1 hour at room temperature. Secondary antibodies were goat antimouse or goat antirabbit horseradish peroxidase conjugates (Dako). Membranes were then washed with blocking solution, and proteins were subsequently detected by chemiluininescence (Amersham Pharmacia Biotech).

[14] = Doxorubicin 0.01 μM, S63A transfectant
[15] = Doxorubicin 0.05 μM, S630A transfectant
[16] = AIM V serum-free media, Doxorubicin 0.10 uM
[17] = AIM V serum-free media, Doxorubicin 0.25 uM
[18] = Etoposide 0.10 uM, S630A transfectant
[19] = Etoposide 0.25 uM, S630A transfectant
[20] = AIM V serum-free media, Etoposide 0.25 uM
[21] = AIM V serum-free media, Etoposide 0.50 uM
[22] = 2 hours preincubation with z-LEHD-fmk, then 3 μM etoposide 48 hours, FIG. 22B

T1 sequence (P11717 41-2491): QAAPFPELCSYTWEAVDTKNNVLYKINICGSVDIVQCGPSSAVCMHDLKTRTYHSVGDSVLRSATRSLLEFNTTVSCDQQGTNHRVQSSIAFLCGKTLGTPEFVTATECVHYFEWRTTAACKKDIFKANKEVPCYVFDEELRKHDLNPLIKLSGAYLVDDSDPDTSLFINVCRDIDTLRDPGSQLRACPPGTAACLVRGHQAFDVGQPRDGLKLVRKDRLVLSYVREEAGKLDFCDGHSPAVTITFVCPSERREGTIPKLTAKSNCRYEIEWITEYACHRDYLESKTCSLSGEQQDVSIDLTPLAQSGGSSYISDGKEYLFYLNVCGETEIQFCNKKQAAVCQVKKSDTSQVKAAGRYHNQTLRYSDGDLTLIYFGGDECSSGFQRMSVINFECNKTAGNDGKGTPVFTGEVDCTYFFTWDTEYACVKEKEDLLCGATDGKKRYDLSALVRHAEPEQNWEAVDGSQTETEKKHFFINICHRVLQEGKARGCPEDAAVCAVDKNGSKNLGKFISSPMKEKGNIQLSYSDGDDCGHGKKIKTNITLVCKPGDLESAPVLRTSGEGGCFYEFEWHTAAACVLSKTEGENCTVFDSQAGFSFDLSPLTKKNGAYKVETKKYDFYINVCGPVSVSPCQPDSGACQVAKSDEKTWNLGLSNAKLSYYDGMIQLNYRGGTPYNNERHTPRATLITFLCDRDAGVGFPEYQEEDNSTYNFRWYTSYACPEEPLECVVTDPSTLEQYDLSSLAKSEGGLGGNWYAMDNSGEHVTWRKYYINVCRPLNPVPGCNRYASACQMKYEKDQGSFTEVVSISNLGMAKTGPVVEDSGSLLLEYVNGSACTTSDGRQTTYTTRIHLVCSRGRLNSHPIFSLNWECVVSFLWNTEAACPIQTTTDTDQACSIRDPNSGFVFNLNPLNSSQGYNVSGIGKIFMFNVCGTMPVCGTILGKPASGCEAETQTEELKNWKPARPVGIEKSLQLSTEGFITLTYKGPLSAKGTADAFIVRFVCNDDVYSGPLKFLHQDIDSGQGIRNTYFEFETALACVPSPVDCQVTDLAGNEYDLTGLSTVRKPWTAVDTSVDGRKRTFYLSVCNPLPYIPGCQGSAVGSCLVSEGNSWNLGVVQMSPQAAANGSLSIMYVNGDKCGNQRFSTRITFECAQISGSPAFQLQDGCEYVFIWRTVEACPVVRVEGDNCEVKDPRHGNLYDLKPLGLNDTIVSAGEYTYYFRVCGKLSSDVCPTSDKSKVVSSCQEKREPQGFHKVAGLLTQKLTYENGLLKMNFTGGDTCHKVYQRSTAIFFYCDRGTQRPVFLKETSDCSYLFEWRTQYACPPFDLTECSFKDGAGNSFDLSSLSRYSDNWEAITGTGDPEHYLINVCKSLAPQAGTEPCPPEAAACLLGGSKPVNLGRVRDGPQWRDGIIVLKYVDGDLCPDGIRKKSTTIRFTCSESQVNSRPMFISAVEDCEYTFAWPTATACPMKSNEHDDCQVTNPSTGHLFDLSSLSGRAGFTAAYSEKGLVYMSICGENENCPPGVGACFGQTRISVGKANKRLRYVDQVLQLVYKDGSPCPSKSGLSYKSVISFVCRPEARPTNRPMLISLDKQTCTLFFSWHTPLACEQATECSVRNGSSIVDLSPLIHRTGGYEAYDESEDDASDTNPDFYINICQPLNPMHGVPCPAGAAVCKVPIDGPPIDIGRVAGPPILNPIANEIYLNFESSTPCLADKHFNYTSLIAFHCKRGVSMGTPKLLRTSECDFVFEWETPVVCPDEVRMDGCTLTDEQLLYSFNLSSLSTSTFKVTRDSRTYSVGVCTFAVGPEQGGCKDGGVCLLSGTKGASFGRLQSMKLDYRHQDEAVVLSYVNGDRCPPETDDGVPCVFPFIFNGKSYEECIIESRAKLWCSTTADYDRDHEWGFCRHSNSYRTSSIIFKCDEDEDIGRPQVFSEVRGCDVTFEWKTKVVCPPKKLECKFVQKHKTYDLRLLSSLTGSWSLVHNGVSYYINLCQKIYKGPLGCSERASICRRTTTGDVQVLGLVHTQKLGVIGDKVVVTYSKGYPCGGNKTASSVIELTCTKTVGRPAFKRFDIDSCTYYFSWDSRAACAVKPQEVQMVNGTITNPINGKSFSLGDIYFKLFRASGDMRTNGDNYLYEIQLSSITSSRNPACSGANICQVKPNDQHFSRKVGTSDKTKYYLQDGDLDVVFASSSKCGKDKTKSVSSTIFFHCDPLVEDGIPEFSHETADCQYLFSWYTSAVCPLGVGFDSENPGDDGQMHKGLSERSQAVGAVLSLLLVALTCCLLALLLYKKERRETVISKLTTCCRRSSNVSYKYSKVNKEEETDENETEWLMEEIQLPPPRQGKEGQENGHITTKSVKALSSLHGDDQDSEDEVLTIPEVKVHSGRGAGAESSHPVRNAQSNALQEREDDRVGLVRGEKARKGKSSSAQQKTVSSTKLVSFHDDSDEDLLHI

COc1cccc2c1C(=O)c1c(O)c3c(c(O)c1C2=O)C[C@@](O)(C(=O)CO)C[C@@H]3O[C@H]1C[C@H](N)[C@H](O)[C@H](C)O1 [Doxorubicin]
doxorubicin-mediated growth inhibition (MTT), sensitivity ([1]; wtCD26 compared with parental (control) or vector only (neo) Jurkat cells, 48 h, FIG. 1): markedly increased sensitivity
doxorubicin-mediated growth inhibition (MTT), sensitivity ([2]; S630A transfectants, 48 h, FIG. 1): less sensitive
Percentage G0G1 [3, 14]: 33%
Percentage G2/M [3, 14]: 35%
Percentage S [3, 14]: 32%
Percentage G0G1 [3, 15]: 27%
Percentage G2/M [3, 15]: 38%
Percentage S [3, 15]: 35%
doxorubicin-mediated growth inhibition (MTT), sensitivity [4]: greater doxorubicin sensitivity
% G0/G1 [5, 16]: 43%
% G2/M [5, 16]: 27%
% S [5, 16]: 30%
% G0/G1 [5, 17]: 36%
% G2/M [5, 17]: 41%
% S [5, 17]: 23%
Percentage G0G1 ([5]; Doxorubicin 0.01 μM): 40%
Percentage G2/M ([5]; Doxorubicin 0.01 μM): 34%
Percentage S ([5]; Doxorubicin 0.01 μM): 26%
Percentage G0G1 ([5]; Doxorubicin 0.05 μM): 32%
Percentage G2/M ([5]; Doxorubicin 0.05 μM): 37%
Percentage S ([5]; Doxorubicin 0.05 μM): 31%
Percentage G0G1 ([6]; Doxorubicin 0.01 μM): 25%
Percentage G2/M ([6]; Doxorubicin 0.01 μM): 50%
Percentage S ([6]; Doxorubicin 0.01 μM): 25%
Percentage G0G1 ([6]; Doxorubicin 0.05 μM): 11%
Percentage G2/M ([6]; Doxorubicin 0.05 μM): 78%
Percentage S ([6]; Doxorubicin 0.05 μM): 11%
doxorubicin-induced apoptosis (Annexin V/PI) ([7]; wtCD26 compared with parental or S630A Jurkat, 16 hours, FIG. 15B): greater apoptosis
doxorubicin-induced apoptosis (Annexin V/PI) ([8]; 340-4 compared with parental or S630A Jurkat, 16 hours, FIG. 15B): greater apoptosis
% G0/G1 [9, 16]: 31%
% G2/M [9, 16]: 49%
% S [9, 16]: 20%
% G0/G1 [9, 17]: 14%
% G2/M [9, 17]: 74%
% S [9, 17]: 12%
Percentage G0G1 ([9]; Doxorubicin 0.01 μM): 11%
Percentage G2/M ([9]; Doxorubicin 0.01 μM): 62%
Percentage S ([9]; Doxorubicin 0.01 μM): 27%
Percentage G0G1 ([9]; Doxorubicin 0.05 μM): 6%
Percentage G2/M ([9]; Doxorubicin 0.05 μM): 69%
Percentage S ([9]; Doxorubicin 0.05 μM): 25%

COc1cc([C@@H]2c3cc4c(cc3[C@@H](O[C@@H]3O[C@@H]5CO[C@@H](C)O[C@H]5[C@H](O)[C@H]3O)[C@H]3COC(=O)[C@H]23)OCO4)cc(OC)c1O [Etoposide]
etoposide-mediated growth inhibition (MTT), sensitivity ([1]; wtCD26 compared to parental cells, FIG. 5): significantly increased sensitivity
etoposide-mediated growth inhibition (MTT), sensitivity ([2]; S630A compared to wtCD26 transfectants, FIG. 5): less sensitive
% G0/G1 [3, 18]: 34%
% G2/M [3, 18]: 29%
% S [3, 18]: 37%
% G0/G1 [3, 19]: 22%
% G2/M [3, 19]: 48%
% S [3, 19]: 30%
% G0/G1 [5, 20]: 51%
% G2/M [5, 20]: 19%
% S [5, 20]: 30%
% G0/G1 [5, 21]: 36%
% G2/M [5, 21]: 36%
% S [5, 21]: 28%
% G0/G1 ([5]; Etoposide 0.10 uM): 41%
% G2/M ([5]; Etoposide 0.10 uM): 21%
% S ([5]; Etoposide 0.10 uM): 38%
% G0/G1 ([5]; Etoposide 0.25 uM): 27%
% G2/M ([5]; Etoposide 0.25 uM): 41%
% S ([5]; Etoposide 0.25 uM): 32%
etoposide-induced apoptosis (Annexin V/PI) ([7]; wtCD26 vs S630A or parental control Jurkat, 14 hours, FIG. 15A): more sensitive to the apoptotic effect
etoposide-induced apoptosis (Annexin V/PI) ([8]; 340-4 transfectants, similar to wtCD26, 14 hours, FIG. 15A): higher level of drug-induced apoptosis
% G0/G1 [9, 20]: 34%
% G2/M [9, 20]: 43%
% S [9, 20]: 23%
% G0/G1 [9, 21]: 18%
% G2/M [9, 21]: 64%
% S [9, 21]: 18%
% G0/G1 ([9]; Etoposide 0.10 uM): 25%
% G2/M ([9]; Etoposide 0.10 uM): 56%
% S ([9]; Etoposide 0.10 uM): 19%
% G0/G1 ([9]; Etoposide 0.25 uM): 12%
% G2/M ([9]; Etoposide 0.25 uM): 69%
% S ([9]; Etoposide 0.25 uM): 19%

O=P(O)(O)OC[C@H]1OC(O)[C@@H](O)[C@@H](O)[C@@H]1O (some centres unmarked) [M6P]
uptake of sCD26 into monocytes (M6P/IGF-IIR on monocytes): inhibited the uptake of sCD26 into monocytes

TT: recall antigen tetanus toxoid
% Increase of CD86 expression on monocytes [10]: 1.2 ± 2%
% Increase of HLA-DR expression on monocytes [11]: 0.3 ± 0.2%
% Increase of CD80 expression on monocytes [12]: 2.0 ± 0.4%

z-LEHD-fmk
etoposide-mediated cleavage of pro-caspase-9 ([13]; 2 hours preincubation with z-LEHD-fmk at varying doses, then 3 μM etoposide 16 hours, FIG. 18): inhibited by z-LEHD-fink in dose-dependent manner
cleavage of pro-caspase-3 and PARP ([13]; 2 hours preincubation with z-LEHD-fmk, then 3 μM etoposide 16 hours, FIG. 18): significantly reduced
etoposide-induced 32 kDa DR5 band [13, 22]: no longer detectable
etoposide-induced increase in the 58 kDa DR5 band [13, 22]: significantly attenuated
